The results in this text go back to US20040180941A1, “3-(1-[3-(1,3-Benzothiazol-6-yl)propylcarbamoyl]cycloalkyl)propanoic acid derivatives as NEP inhibitors” (Pfizer Inc, priority 2003, published 2004).

Series [1] has as its target T1, NEP (neutral endopeptidase EC.3.4.24.11), native enzyme isolated from kidneys (Homo sapiens, UniProt P08473).
T1 construct: NEP is isolated from kidneys following the method described by Kenny and Booth; from tissue
Kind of series: Assay of NEP peptidase activity (fluorogenic peptide substrate), IC50 determination. Type of series: biochemical. Conditions: read-out: activity against NEP expressed as an IC50. The procedure: Production of Native NEP Enzyme:
NEP is isolated from kidneys following the method described by Kenny and Booth (Booth, A. G. & Kenny, A. J. (1974) Biochem. J. 142, 575-581).
Assay of SEP or NEP Peptidase Activity
The peptidase activity of SEP or NEP is measured by monitoring its ability to proteolyse the synthetic peptide substrate Rhodamine green-Gly-Gly-dPhe-Leu-Arg-Arg-Val-Cys(QSY7)-βAla-NH2:
Reagents for the assay are first prepared as follows:
A substrate solution is made up by diluting a 2 mM/100% DMSO Rhodamine green-Gly-Gly-dPhe-Leu-Arg-Arg-Val-Cys(QSY7)-βAla-NH2 stock solution in 50 mM HEPES buffer pH7.4 (Sigma, UK) at a concentration of 2 μM.
An aliquot of SEP or NEP enzyme described above is thawed then diluted in 50 mM HEPES, pH7.4 containing 1 EDTA free protease inhibitor cocktail tablet (Roche Diagnostics, UK) per 25 ml. […]
(§1) In a black 384 well microtitre plate, 15 μl of enzyme solution is added to 15 μl of 4% DMSO solution. […] Following incubation a fluorescence measurement is taken (Ex485/Em538). BMG galaxy fluorescence reader (BMG Lab technologies, Offenberg, Germany).
(§2) The proteolytic activity of the enzyme corresponds to the fluorescence of the sample minus the fluorescence of the non-specific background blank.
(§3) A fluorescence measurement taken from 60 μl of product in a well on an identical microtitre plate may be taken. […]

The target in series [2] is T2, Recombinant SEP (soluble secreted endopeptidase) (Homo sapiens, UniProt Q495T6).
T2 construct: made in house
T2 sequence (Q495T6 75-779 limits assumed): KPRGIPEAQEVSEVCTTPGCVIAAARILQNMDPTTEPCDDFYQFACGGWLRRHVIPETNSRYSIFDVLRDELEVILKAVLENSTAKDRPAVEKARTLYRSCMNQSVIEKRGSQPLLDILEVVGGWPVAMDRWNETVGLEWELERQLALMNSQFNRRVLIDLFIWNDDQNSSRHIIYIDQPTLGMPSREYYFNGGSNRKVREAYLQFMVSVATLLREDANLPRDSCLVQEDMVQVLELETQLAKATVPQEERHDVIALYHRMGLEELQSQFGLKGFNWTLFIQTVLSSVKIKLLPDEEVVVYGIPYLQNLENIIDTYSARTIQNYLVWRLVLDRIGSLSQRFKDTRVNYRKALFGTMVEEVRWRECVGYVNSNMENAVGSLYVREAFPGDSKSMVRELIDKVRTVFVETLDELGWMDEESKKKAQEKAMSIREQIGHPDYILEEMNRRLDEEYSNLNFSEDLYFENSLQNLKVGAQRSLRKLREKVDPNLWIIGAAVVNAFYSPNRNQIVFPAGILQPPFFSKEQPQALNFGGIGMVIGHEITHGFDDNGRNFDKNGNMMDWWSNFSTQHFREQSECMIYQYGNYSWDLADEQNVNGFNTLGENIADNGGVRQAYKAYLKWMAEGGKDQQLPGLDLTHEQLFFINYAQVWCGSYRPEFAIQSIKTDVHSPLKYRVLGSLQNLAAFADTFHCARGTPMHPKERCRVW
Kind of series: Assay of SEP peptidase activity (fluorogenic peptide substrate), IC50 determination. Conditions: ratio of SEP to NEP inhibition. The class given is biochemical. The procedure: Recombinant SEP enzyme is produced using one of two alternative methods:
Method 1: A culture of Chinese Hamster Ovary (CHO) cells is transfected with the plasmid NCIMB deposit number 41110 using the lipofectamine method as described in the lipofectamine reagent protocol (Invitrogen Ltd, Paisley, UK). The cell media is harvested at 24 or 48 hours post transfection, and cleared of cell debris by centrifugation at 3000 g for 5 min. The media is then dialyzed overnight at 4° C. against 50 mM HEPES pH7.4/10% glycerol, using a “slide a lyser” from Pierce and Warner, Chester UK. The dialyzed sample is then frozen in aliquots and stored under liquid nitrogen. […]
The peptidase activity of SEP or NEP is measured by monitoring its ability to proteolyse the synthetic peptide substrate Rhodamine green-Gly-Gly-dPhe-Leu-Arg-Arg-Val-Cys(QSY7)-βAla-NH2: […]
as §1, §2, §3

T1 sequence (P08473 whole entry): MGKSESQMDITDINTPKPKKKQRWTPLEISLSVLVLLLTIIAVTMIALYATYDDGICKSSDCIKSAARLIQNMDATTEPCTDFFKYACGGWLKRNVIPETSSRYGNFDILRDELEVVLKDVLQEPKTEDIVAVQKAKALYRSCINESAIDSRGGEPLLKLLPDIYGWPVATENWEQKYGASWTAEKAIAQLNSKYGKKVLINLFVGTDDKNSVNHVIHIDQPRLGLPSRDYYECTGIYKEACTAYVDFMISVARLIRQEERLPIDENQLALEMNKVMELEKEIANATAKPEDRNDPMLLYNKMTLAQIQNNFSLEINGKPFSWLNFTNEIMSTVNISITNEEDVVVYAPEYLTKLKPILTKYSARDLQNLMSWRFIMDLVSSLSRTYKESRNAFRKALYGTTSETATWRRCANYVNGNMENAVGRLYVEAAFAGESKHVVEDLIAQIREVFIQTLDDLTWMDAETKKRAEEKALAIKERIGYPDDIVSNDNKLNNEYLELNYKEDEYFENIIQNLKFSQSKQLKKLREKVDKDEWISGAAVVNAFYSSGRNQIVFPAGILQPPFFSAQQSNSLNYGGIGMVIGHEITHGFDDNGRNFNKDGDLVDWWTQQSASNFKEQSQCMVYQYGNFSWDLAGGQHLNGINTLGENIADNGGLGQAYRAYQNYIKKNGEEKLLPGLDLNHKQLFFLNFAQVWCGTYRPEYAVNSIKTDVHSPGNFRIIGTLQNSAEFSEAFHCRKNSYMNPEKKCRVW

Regarding `Cc1nc2ccc(CCCNC(=O)C3(C[C@@H](C)C(=O)O)CCCC3)cc2s1` [Example 1, (R)-2-Methyl-3-(1-{[3-(2-methyl-1,3-benzothiazol-6-yl)propyl]carbamoyl}cyclopentyl)propanoic acid], the melting point – broadly, the temperature, or range, at which the solid turns liquid – was 105 to 106 °C. Further, the IC50 (usually the point on the concentration scale where inhibition reaches its midpoint) in series [1] is 1 nM. For the same molecule, in series [2], the “selectivity for NEP over SEP” value amounted to 1900 fold.

`CCc1nc2ccc(CCCNC(=O)C3(CCC(=O)O)CCCC3)cc2s1` [Example 2, 3-(1-{[3-(2-ethyl-1,3-benzothiazol-6-yl)propyl]carbamoyl}cyclopentyl)propanoic acid] gave a melting point of 127.5 to 129.5 °C.
